{"source": "patent US20100240589A1", "about": "“DIASTEREOMERIC PEPTIDES USEFUL AS INHIBITORS OF MEMBRANE PROTEIN ASSEMBLY” (YEDA RESEARCH AND DEVELOPMENT CO., LTD. AT THE WEIZMANN …, priority 2003, published 2010)", "key": {"[1]": {"system": "HIV1 gp41 mediated viral fusion", "details": "literature; cited from earlier work"}, "[2]": {"system": "Tar-1 TM domain (ToxR-MalE chimera)", "details": "different concentrations of exogenous peptide, FIG. 9", "text": "The ToxR transcription activator can be used successfully to assess weak protein-protein interactions within the E. coli membrane. A Tar-1 TM domain encoding the DNA cassette was grafted between the ToxR transcription activator and the maltose binding protein in the ToxR-MalE plasmid. The plasmid was then transformed into E. coli FHK12 cells, which contain β-galactosidase, under the control of a ctx promoter. Dimerization of the TM domains, in this system, results in association and activation of the ToxR transcription activator, which then becomes active and is able to bind the ctx promoter. Quantification of the amount of homo-dimerization was done by measuring the activity of the β-galactosidase reporter gene and by normalizing it to the cell content (OD590) (miller units)\nThe ability of the Tar-1 peptides to disrupt the proper dimerization of the wild-type transmembrane (TM) domain was thus investigated by using the ToxR system. This TM assembly system can assess the dimerization of a specific TM domain grafted between the ToxR transcription activator and the maltose binding protein, MalE. […] The TM-TM interactions were monitored by measuring the activity of β-galactosidase in the presence of different concentrations of exogenous Tar-1 analog peptides."}, "[3]": {"target": "wt-fusion peptide (N-terminal 33 segment of gp41) (Human immunodeficiency virus type 1 group M subtype B, UniProt P03377)", "details": "NBD-wt donor 0.05 μM, Rho acceptor 0.025-0.35 μM, SUV 400 μM", "method": "The self-association of the peptides in their membrane-bound state was monitored by employing resonance energy transfer measurements. Fluorescence resonance energy transfer was measured using NBD-labeled peptides serving as donors and Rho (rhodamine)-labeled peptides serving as energy acceptors. Fluorescence spectra were obtained at room temperature with excitation set at 467 nm using a 10 nm slit width. In a typical experiment, donor peptide (final concentration 0.04 μM) was added to a dispersion of phosphatidylcholine/cholesterol (PC/Chol; 10:1 w/w) small unilamellar vesicles (SUV; 224 μM) in PBS, followed by the addition of acceptor peptide in several sequential doses. Fluorescence spectra were obtained before and after addition of the acceptor. The efficiency of energy transfer (E) was determined by measuring the decrease in the quantum yield of the donor as a result of the presence of acceptor. E was determined experimentally from the ratio of the fluorescence intensities of the donor in the presence (Ida) and in the absence (Id) of the acceptor, at the donor's maximum emission wavelength. The percentage of transfer efficiency (E), is given by:\nThe contribution of buffer and vesicles was subtracted from all measurements. […] The acceptor-peptide was added only after the donor-peptide was already bound to the membrane, thus decreasing association in solution. […]"}, "[4]": {"system": "fusion of HIV-1 gp120-41 expressing TF228 cells with CD4+CXCR4+3T3 mouse fibroblasts", "test": "Dye transfer fusion assay (cell-cell fusion)", "type": "cell-based", "details": "for inhibition compared with the wild-type peptide: dye transfer fusion assay; for inhibition of HIV-1 mediated cell-cell fusion: dye transfer, co-culture 2 hours at 37° C.", "description": "Peptide inhibition of cell-cell fusion was assayed by monitoring the redistribution of two fluorescent probes: a water-soluble probe and a lipophilic probe, between target and effector cells upon their co-incubation with these probes (Munoz-Barroso I., et al., 1998, J. Cell Biol. 140: 315-323). The HIV-1 gp120-41 expressing TF228 cells (Jonak, Z. L., et al., 1993, AIDS Res. Hum. Retrovir. 9:23-32) were labeled with either calcein or a green fluorescent fatty acid as follows: HIV-1 gp120-41 expressing TF228 cells were incubated with 1 μM calcein for 60 minutes at 37° C., and then washed and resuspended at 10^5 cells/ml in RPMI medium. Alternatively, the HIV-1 gp120-41 expressing TF228 cells were labeled with the fatty acid 4,4-difluoro-5-methyl-4-bora-3a, 4a-diaza-s-indacene-3-dodecanoic acid (C1-BODIPY-C12; (Molecular Probes, Eugene, Oreg.)) as follows: HIV-1 gp120-41 expressing TF228 cells were seeded at 10^5 cells/ml in RPMI medium containing 10 mg/ml of the C1-BODIPY-C12 and grown for three days prior to the experiment. The fatty acid was eventually metabolized into phospholipid, primarily phosphatidylcholine. The cells where then washed and resuspended at 10^5 cells/ml. The target cells, CD4+CXCR4+3T3 mouse fibroblasts, were plated at 10^5 cells/ml the night before the experiment. The next day, the CD4+CXCR4+3T3 cells were labeled with 20 μM [5-(and -6) ((4-Chloromethyl)benzoyl)amino)) tetramethylrhodamine (CMTMR) for one hour at 37° C., washed several times and combined with the effector cells (1:3 target-effector cell ratio). Different concentrations of peptides, dissolved in PBS or Tris buffer, were then added. The cells were co-cultured for 2 hours at 37° C. in 12 well plates (Costar, Cambridge, Mass.). Phase and fluorescent images were collected using an Olympus IX70 coupled to a CCD camera (Princeton Instruments, Trenton, N.J.) with a 20× objective lens. An 82000 optical filter cube (Chroma Technology Corp., Brattleboro, Vt.) was used for the excitation of calcein (494/517), BODIPY (500/510), and CMTMR (541/565). Three images per well were collected and then analyzed using metamorph software (Universal Imaging, WestChester, Pa.) for dye transfer from the donor to the acceptor cell. The scoring of fusion events was conducted as described by Munoz-Barroso et al. (ibid.)."}, "[5]": {"target": "ToxR GPA (GPA transmembrane domain)", "test": "ToxR GPA heterodimer formation (β-galactosidase reporter)", "type": "cell-based", "description": "The ToxR GPA plasmid construct is a simple and robust method for detecting homodimerization of transmembrane domains in vivo (Langosch, D., et al., 1996, J. Mol. Biol. 263: 525-530). The detection is done through the signal of a β-galactosidase reporter gene. Heterodimerization can be detected through addition of an exogenous peptide. […] The 2D-GPA peptide of SEQ ID NO:11 was exogenously added to the system in increasing doses (0.5-20 μM; FIG. 5). […] The inhibition was calculated as follows: I is the inhibitory ability of the peptide, Apeptide is the activity of ToxR-GPA in the presence of the peptide, Amax is the maximal activity of ToxR-GPA without peptide, and Abaseline is the baseline activity of the monomer A16 plasmid, a plasmid containing a peptide which consists of 16 amino acids all of which are alanine (Langosch, D., et al., 1996, J. Mol. Biol. 263: 525-530).\nIC50 was calculated by fitting normalized data to the Langmuir equation (equation 3) in the Origin 6.0 commercial program.\nWere A represents ToxR-GPA transcription factor, B represents the exogenous peptide, I represents inhibition of beta-galactosidase activity (1-activity) and K is a scaling constant."}, "Tar-1 all-L NBD peptide": {"target": "Tar-1 all-L NBD peptide (Escherichia coli, UniProt P07017)", "details": "donor Tar-1 all-L NBD peptide; acceptor-to-lipid ratio of 1:7500; PE/PG SUV", "description": "To investigate the direct interaction between the two enantiomers of Tar-1 in an isolated in vitro system, fluorescence energy transfer (FRET) between fluorescently labeled Tar-1 wild-type peptide and its diastereomeric analog was measured. The assay was performed in a model lipid environment of small unilamellar vesicles (SUV) composed of negatively charged PE/PG lipids (7:3 w/w). This phospholipid composition is typical of the E. coli inner membrane. The Tar-1 peptides were labeled with NBD as the donor fluorophore or rhodamine-TAMRA as the acceptor fluorophore, and FRET was measured."}, "[6]": {"system": "ToxR GPA construct in FHK12 bacteria", "test": "ToxR receptor expression levels (Western blot)", "type": "cell-based", "details": "anti maltose binding protein", "description": "Bacteria FHK12 cells were grown in the presence or absence of 2D-GPA, 10 μl samples were added to 2× sample buffer and boiled for 5 minutes. The samples were separated on a 12% SDS-PAGE and thereafter were blotted. The primary antibody used was anti maltose binding protein. The detection was performed with Phototope-HRP Western Blot Detection System (Cell Signaling Technology, MA, USA)."}, "activated T-cells": {"system": "activated T-cells", "test": "Binding of NBD-labeled fusion peptides to T-cells (confocal fluorescence microscopy)", "type": "cell-based", "design": "dose or concentration left out as unconfirmed", "details": "30 minutes, room temperature", "description": "Nitrobenzofurazane (NBD)-labeled wt-fusion peptide or NBD-labeled diastereomeric fusion peptide (herein designated IFFA) were studied for their binding to activated T-cells as follows: Activated T-cells (10,000/ml) were incubated for 30 minutes at room temperature with NBD labeled wt- or IFFA-fusion peptides (0.5 mM final concentration). The cells were washed twice with PBS (100 ml) in order to remove excess of unbound peptide. The cells were then observed under the fluorescent confocal microscope. NBD excitation was at 488 nm with the laser set at 2% power to prevent bleaching of the fluorophore. Fluorescence data was collected from 525 nm and up."}, "wt-GPA": {"target": "T1, wt-GPA (Homo sapiens, UniProt P02724)", "T1 construct": "ITLIIFGVMAGVIGT; fluorophore label (NBD); made in house; host or cells: chemical peptide synthesis", "test": "FRET between wt-GPA and diastereomer in LUV", "type": "binding", "details": "donor 0.1 μM, acceptor 0.01-0.05 μM, LUV 340 μM", "description": "Wild type (wt)-GPA and the 2D-GPA analog were synthetically labeled with Rhodamine and NBD, respectively, and fluorescent resonance energy transfer (FRET) experiments were performed with NBD-labeled peptides serving as energy donors and Rhodamine-labeled peptides serving as energy acceptors. […] In a typical experiment, a donor peptide (final concentration 0.1 μM) was added to a dispersion of large unilamellar vesicles (LUV; 340 μM) in PBS. This was followed by the addition of an acceptor peptide in increasing doses ranging from 0.01 to 0.05 μM. At this peptide to lipid ratios, complete membrane binding is expected for all the transmembrane peptides. […] The percentage of transfer efficiency (E), is given by:\nThe R0 for this pair of donor-acceptor fluorophores is around 51 Å."}, "FHK12 bacterial membrane": {"system": "FHK12 bacterial membrane", "test": "Binding of NBD labeled peptide to bacterial membrane (confocal)", "type": "cell-based", "details": "NBD labeled peptide 500 nM", "description": "The binding of 2D-GPA to the membrane of the FHK12 bacteria is a prerequisite for the interaction between the peptide and the GPA ToxR construct. In order to verify this binding, the bacteria were observed under a confocal microscope in the absence or presence of a NBD labeled 2D-GPA peptide at a 500 nM concentration. Experiments were done as follows: FHK12 bacteria were diluted 1:10000 and incubated with NBD labeled 2D-GPA, final concentration of 500 nM, for 30 seconds. Samples were fixed with Glutaraldehyde at a final concentration of 0.001% for 30 seconds, centrifuged and washed 3 times with fresh PBS. Confocal images were obtained using an Olympus IX70 FV500 confocal laser-scanning microscope. […] The confocal images were obtained at 12-bit resolution."}}, "note": "Where two headings read alike, the source gives them in different places. Ends that are not written are not given here.", "data": [{"compound": "O=C(N[C@H](CO)[C@H](O)c1ccc([N+](=O)[O-])cc1)C(Cl)Cl", "note": "[chloramphenicol]", "values": [{"measurement": "cell density (growth) of the bacteria", "setting": "CP362 containing pNT201", "result": "zero growth"}]}, {"compound": "enfuvirtide", "values": [{"measurement": "inhibition of viral fusion", "setting": "[1]", "result": "competent inhibitors of viral fusion"}]}, {"compound": "KKKMVLGVFALLQLISGSLKK [Tar-1 all-L, reference compound]", "values": [{"measurement": "inhibition of Tar-1 TM domain dimerization (β-galactosidase activity)", "setting": "[2]; listed as Tar-1 all-L peptide", "result": "inhibition profile similar to its diastereomeric counterpart"}]}, {"compound": "AVGIGALFLGFLGAAGSTMGARSMTLTVQARQL [IFFA]", "values": [{"measurement": "association with wt-fusion peptide (energy transfer)", "setting": "[3]", "result": "associate with the wt-fusion peptide"}, {"measurement": "concentration showing significant inhibitory effect on cell-fusion", "setting": "[4]; FIG. 2", "result": 10, "unit": "ng/mL"}, {"measurement": "inhibition compared with the wild-type peptide", "setting": "[4]", "result": "identical to that of the wild-type (wt) fusion peptide"}]}, {"compound": "AVGIGALFLGFLG [reference compound]", "values": [{"measurement": "inhibition of HIV-1 mediated cell-cell fusion", "setting": "[4]", "result": "completely devoid of inhibitory activity"}]}, {"compound": "KKITLIIFGVMAGVIGT [all L GPA, reference compound]", "values": [{"measurement": "IC50", "setting": "[5]; previous all L and all D GPA results fitted to this model, read-out: IC50 of the interaction with the GPA transmembrane domain", "result": 360, "unit": "nM"}]}, {"compound": "KKKMVLGVFALLQLISGSLKK (KKKMVLGVFALLQLISGSLKK-NH2; also: D-amino acids, which not given here) [Tar-1 diastereomer]", "values": [{"measurement": "inhibition of Tar-1 TM domain dimerization (β-galactosidase activity)", "setting": "[2]", "result": "interfered with the proper dimerization"}, {"measurement": "energy transfer", "setting": "Tar-1 all-L NBD peptide", "result": "about 30%"}]}, {"compound": "AVGIGALF [8-mer wild-type control peptide, reference compound]", "values": [{"measurement": "inhibition of HIV-1 mediated cell-cell fusion", "setting": "[4]", "result": "completely devoid of inhibitory effect"}]}, {"compound": "D-S^649, Q^650-DP178 [[D-SQ]-DP178]", "values": [{"measurement": "inhibition of HIV-1 mediated cell-cell fusion", "setting": "[4]", "result": "completely inactive"}]}, {"compound": "KKITLIIFGVMAGVIGT (also: D-amino acids, which not given here) [SEQ ID NO:12, another diastereomeric GPA peptide]", "values": [{"measurement": "effect on expression levels of the ToxR GPA construct", "setting": "[6]", "result": "did not affect the expression levels"}]}, {"compound": "AVGIGALFLGFLGAAGSTMGARSMTLTVQARQL [wt-fusion peptide]", "values": [{"measurement": "binding to T-cells", "setting": "activated T-cells", "result": "high affinity binding to T-cells"}]}, {"compound": "D-L^669, W^670-DP178 [[D-LW]-DP178]", "values": [{"measurement": "inhibition compared with the wild-type peptide", "setting": "[4]", "result": "more active than the wild-type DP178"}, {"measurement": "inhibition of HIV-1 mediated cell-cell fusion", "setting": "[4]", "result": "inhibited the fusion"}]}, {"compound": "FFGAVIGTIALGVATSAQITAGIALAEAREAKR [fusion peptide of Sendai virus, reference compound]", "values": [{"measurement": "inhibition of HIV-1 mediated cell-cell fusion", "setting": "[4]", "result": "completely devoid of inhibitory activity"}]}, {"compound": "ITLIIFGVMAGVIGT [2D-GPA, GPA transmembrane domain analog, L-valines at positions 80 and 84 replaced by their D-enantiomer]", "values": [{"measurement": "fluorescence energy transfer with wt-GPA", "setting": "wt-GPA", "result": "fluorescence energy transfer increased"}, {"measurement": "inhibition of ToxR GPA homodimer signal", "setting": "[5]; exogenous peptide 0.5-20 μM", "result": "concentration dependent inhibitory effect"}, {"measurement": "IC50", "setting": "[5]; extrapolated from the fit to Langmuir equation, read-out: IC50 of the interaction with the integral GPA transmembrane domain", "result": 290, "unit": "nM"}, {"measurement": "effect on expression levels of the ToxR GPA construct", "setting": "[6]", "result": "no significant differences were detected"}, {"measurement": "localization in FHK12 bacteria", "setting": "FHK12 bacterial membrane", "result": "localized in the bacterial membrane"}]}]}
